For data set [1], the system named is barnyardgrass (Echinochloa crus-galli). As to the kind of experiment: Test A greenhouse herbicide test, pre- and postemergence. Format: in vivo. The settings on record: Echinochloa crus-galli, 240 h, 1000 g ai/ha, 0 to 100 scale. A digest of the protocol: (§1)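 Visual injury ratings, 0 (no effect) to 100 (complete control), versus untreated plants after roughly 10 d in a greenhouse. Compounds, formulated in a surfactant-containing non-phytotoxic solvent, were sprayed on loam–sand soil after sowing (pre) or on one- to two-leaf plants 2–10 cm tall (post).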

The subject of another data set is corn (Zea mays). Described as above. Particulars: Zea mays, 240 h, 1000 g ai/ha, 0 to 100 scale; for plant injury at 1000 g/ha: post-emergence, Postemergence, 0 is no effect, 100 is complete control, read-out: Corn plant response rating; for Corn plant response rating (crop injury, 0 = no effect, 100 = complete kill) at 1000 g/ha: pre-emergence, Preemergence, 100 complete control. It counts as in vivo. A digest of the protocol: as §1

Data set [2] deals with crabgrass, large (large crabgrass, Digitaria sanguinalis). Described as above. Particulars: 240 h, 1000 g ai/ha, 0 to 100 scale. Format: in vivo. A digest of the protocol:
as §1

Data set [3] relates to foxtail, giant (giant foxtail, Setaria faberii). The data set is described as above. Particulars: Setaria faberi, 240 h, 1000 g ai/ha, 0 to 100 scale. Format: in vivo. The method in brief: as §1
The subject of data set [4] is momingglory (Ipomoea spp.). Described as above. It counts as in vivo. Particulars: 240 h, 1000 g ai/ha, 0 to 100 scale. The method in brief:
as §1

Data set [5] deals with pigweed (Amaranthus retroflexus). The description is as above. Format: in vivo. Particulars: Amaranthus retroflexus, 240 h, 1000 g ai/ha, 0 to 100 scale. A digest of the protocol:
as §1

Data set [6] has as its system velvetleaf (Abutilon theophrasti). The description is as above. It counts as in vivo. Particulars: 240 h, 1000 g ai/ha, 0 to 100 scale. The method in brief: as §1
For data set [7], the system named is wheat (Triticum aestivum). The description is as above. Format: in vivo. The settings on record: Triticum aestivum, 240 h, 1000 g ai/ha, 0 to 100 scale. The method in brief: as §1
Data set [8] relates to barnyardgrass (Echinochloa crus-galli). As to the kind of experiment: Test B flooded paddy test. Particulars: Echinochloa crus-galli, 360 h; 250 g ai/ha, Flood; visual rating on scale of 0 to 100 where 0 is no effect and 100 is complete control; 13 to 15 d after treatment; read-out: Plant response rating, Barnyardgrass. Format: in vivo. A digest of the protocol:
(§2)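 Ratings use a 0-100 visual scale, where 100 is complete control, and compare treated plants with controls after 13 to 15 d of greenhouse growth. Compound went straight into paddy water kept 3 cm over the soil surface, applied to seedlings at the 2-leaf stage.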

Data set [9] concerns ducksalad (Heteranthera limosa). As to the kind of experiment: Test B flooded paddy test. The settings on record: Heteranthera limosa, 360 h; 250 g ai/ha, Flood; visual rating on scale of 0 to 100 where 0 is no effect and 100 is complete control; 13 to 15 d after treatment; read-out: Plant response rating, Ducksalad. Format: in vivo. The method in brief: as §2
For a further data set, the system named is rice (Oryza sativa). As to the kind of experiment: Test B flooded paddy test. Format: in vivo. Particulars: Oryza sativa, 360 h; 250 g ai/ha, Flood; visual rating on scale of 0 to 100 where 0 is no effect and 100 is complete control; 13 to 15 d after treatment; read-out: Plant response rating, Rice. A digest of the protocol: as §2
Data set [10] concerns sedge, umbrella (small-flower umbrella sedge, Cyperus difformis). As to the kind of experiment: Test B flooded paddy test. It counts as in vivo. Particulars: Cyperus difformis, 360 h; 250 g ai/ha, Flood; visual rating on scale of 0 to 100 where 0 is no effect and 100 is complete control; 13 to 15 d after treatment; read-out: Plant response rating, Sedge, Umbrella. The method in brief:
as §2

The mark [11] stands for this setting: post-emergence, Postemergence, 0 is no effect, 100 is complete control, read-out: Barnyardgrass plant response rating.
Setting [12] is: pre-emergence, Preemergence, 0 no effect, 100 complete control, read-out: Plant response rating, Barnyardgrass.
Setting [13] is: post-emergence, Postemergence, 0 is no effect, 100 is complete control, read-out: Crabgrass, Large plant response rating.
[14] abbreviates: pre-emergence, Preemergence, 0 no effect, 100 complete control, read-out: Plant response rating, Crabgrass, Large.
The mark [15] stands for this setting: post-emergence, Postemergence, 0 is no effect, 100 is complete control, read-out: Foxtail, Giant plant response rating.
The mark [16] stands for this setting: pre-emergence, Preemergence, 0 no effect, 100 complete control, read-out: Plant response rating, Foxtail, Giant.
The mark [17] stands for this setting: post-emergence, Postemergence, 0 is no effect, 100 is complete control, read-out: Morningglory plant response rating.
Where [18] appears, read: pre-emergence, Preemergence, 0 no effect, 100 complete control, read-out: Plant response rating, Morningglory.
Setting [19] is: post-emergence, Postemergence, 0 is no effect, 100 is complete control, read-out: Pigweed plant response rating.
Where [20] appears, read: pre-emergence, Preemergence, 0 no effect, 100 complete control, read-out: Plant response rating, Pigweed.
Where [21] appears, read: post-emergence, Postemergence, 0 is no effect, 100 is complete control, read-out: Velvetleaf plant response rating.
[22] abbreviates: pre-emergence, Preemergence, 0 no effect, 100 complete control, read-out: Plant response rating, Velvetleaf.
[23] abbreviates: post-emergence, Postemergence, 0 is no effect, 100 is complete control, read-out: Wheat plant response rating.
Setting [24] is: pre-emergence, Preemergence, 0 no effect, 100 complete control, read-out: Plant response rating, Wheat.

Read-outs that look alike come from different tables or passages of the source.

Consider `Cc1cc(C)c2c(-c3c(O)c(C)nn(C)c3=O)c(C)sc2c1` [Compound 3, 5-hydroxy-2,6-dimethyl-4-(2,4,6-trimethylbenzo[b]thien-3-yl)-3(2H)-pyridazinone], for which the melting point was in the range of 224 to 227 °C. Also, the pest or weed control at 1000 g/ha in [1] (setting [11]) was found to be 50%. For the same compound, in [1] (setting [12]), the pest or weed control at 1000 g/ha was 80%. Besides, in the data set on corn (Zea mays), the plant injury at 1000 g/ha was 0% and the Corn plant response rating (crop injury, 0 = no effect, 100 = complete kill) at 1000 g/ha is 0%. Moreover, the pest or weed control at 1000 g/ha in [2] (setting [13]) amounted to 10%. Besides, in data set [2] (setting [14]), the pest or weed control at 1000 g/ha came to 80%. The pest or weed control at 1000 g/ha in data set [3] (setting [15]) amounted to 10%. Besides, the pest or weed control at 1000 g/ha in [3] (setting [16]) is 60%. Moreover, in [4] (setting [17]), the pest or weed control at 1000 g/ha worked out at 90%. In addition, in data set [4] (setting [18]), the pest or weed control at 1000 g/ha came to 80%. The pest or weed control at 1000 g/ha in [5] (setting [19]) amounted to 0%. The pest or weed control at 1000 g/ha in data set [5] (setting [20]) is 0%. Also, in data set [6] (setting [21]), the pest or weed control at 1000 g/ha is 70%. Moreover, the pest or weed control at 1000 g/ha in data set [6] (setting [22]) was determined as 70%. In [7] (setting [23]), the plant injury at 1000 g/ha came to 0%. For the same compound, the plant injury at 1000 g/ha in [7] (setting [24]) came to 0%. Also, the pest or weed control at 250 g/ha in [8] was 0%. In [9], the pest or weed control at 250 g/ha is 20%. The plant injury at 250 g/ha with rice (Oryza sativa) was determined as 0%. Also, the pest or weed control at 250 g/ha in data set [10] was 0%.
`Cc1nn(C)c(=O)c(-c2c(C)oc3ccccc23)c1O` [Compound 4, 5-hydroxy-2,6-dimethyl-4-(2-methyl-3-benzofuranyl)-3 (2H)-pyridazinone] had a melting point of 238 to 240 °C. Also, the pest or weed control at 1000 g/ha in data set [1] (setting [11]) was found to be 70%. The pest or weed control at 1000 g/ha in data set [1] (setting [12]) is 100%. In the data set with corn (Zea mays), the plant injury at 1000 g/ha turned out to be 0% and the Corn plant response rating (crop injury, 0 = no effect, 100 = complete kill) at 1000 g/ha worked out at 10%. The pest or weed control at 1000 g/ha in [2] (setting [13]) came out at 50%. The pest or weed control at 1000 g/ha in data set [2] (setting [14]) worked out at 80%. Besides, the pest or weed control at 1000 g/ha in [3] (setting [15]) is 80%. In [3] (setting [16]), the pest or weed control at 1000 g/ha was 80%. The pest or weed control at 1000 g/ha in data set [4] (setting [17]) worked out at 70%. Moreover, the pest or weed control at 1000 g/ha in data set [4] (setting [18]) is 60%. Moreover, the pest or weed control at 1000 g/ha in data set [5] (setting [19]) was determined as 50%. Moreover, the pest or weed control at 1000 g/ha in [5] (setting [20]) stood at 70%. Also, the pest or weed control at 1000 g/ha in data set [6] (setting [21]) was 60%. The pest or weed control at 1000 g/ha in [6] (setting [22]) turned out to be 40%. For the same compound, the plant injury at 1000 g/ha in data set [7] (setting [23]) was 0%. In addition, in [7] (setting [24]), the plant injury at 1000 g/ha was 0%. Moreover, the pest or weed control at 250 g/ha in data set [8] stood at 0%. In addition, in data set [9], the pest or weed control at 250 g/ha was 0%. In addition, the plant injury at 250 g/ha in the data set with rice (Oryza sativa) is 0%. The pest or weed control at 250 g/ha in data set [10] stood at 0%.

For orientation: melting point means the temperature of the solid-liquid transition.

Source of the values: US10597388B2, “Pyridazinone herbicides” (FMC CORPORATION, priority 2014, dated 2020).
